According to BindingDB's records for patent US20250282741 (Innovo Therapeutics, 2025):

Molecular target: T1, Serpin H1 (Human, UniProt P50454)
T1 sequence (P50454 whole entry): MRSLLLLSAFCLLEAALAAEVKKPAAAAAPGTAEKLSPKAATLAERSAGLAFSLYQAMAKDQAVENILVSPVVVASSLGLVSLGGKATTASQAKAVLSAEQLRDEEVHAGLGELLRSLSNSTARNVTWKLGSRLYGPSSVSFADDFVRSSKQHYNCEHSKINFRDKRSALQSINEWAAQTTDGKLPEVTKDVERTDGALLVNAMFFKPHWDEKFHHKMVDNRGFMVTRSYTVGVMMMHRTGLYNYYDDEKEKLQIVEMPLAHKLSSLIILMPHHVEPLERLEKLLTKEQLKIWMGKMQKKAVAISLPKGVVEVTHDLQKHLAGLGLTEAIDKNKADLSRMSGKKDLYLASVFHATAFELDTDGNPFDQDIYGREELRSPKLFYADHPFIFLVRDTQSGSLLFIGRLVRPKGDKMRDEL
Experiment: Inhibition of HSP47 Function
Method: Fibrils were formed by adding 180 ul of phosphate-buffered saline (PBS, pH 7.4) solution to 20 ul of collagen dissolved in acidic solution (collagen solution, UK), which was measured at a wavelength of 340 nm. HSP47 (GenScript US) was added at a concentration of 9.45 μg/ml to assess HSP47 activity as the degree to which it inhibits fibril formation. Test compound was added with concentrations of 100 μM to 1 μM and the inhibitory activity of HSP47 was calculated as a percentage or EC50.

Row | EC50 | Compound
1 | 15.9 µM | CCc1oc2c(Cl)cccc2c1C(=O)c1cc(I)c(O)c(I)c1 [US20250282741, Example 14]
2 | 73.1 µM | CCc1oc2cc(Cl)ccc2c1C(=O)c1cc(Br)c(O)c(Br)c1 [US20250282741, Example 12]
3 | 32.1 µM | CCc1oc2cc(C(F)(F)F)ccc2c1C(=O)c1cc(Br)c(O)c(Br)c1 [US20250282741, Example 22]
